We go through 24 compounds from US10662156B2, “Guanidine derivative and medical use thereof” (Toray Industries, Inc., priority 2016, dated 2020).

pIC50: −log10 of the molar value. Where a name gives a salt, the structure may show the parent alone.

In this experiment the target is recombinant GST fusion MALT1 (human MALT1) (Homo sapiens (Human), UniProt Q9UDY8). Nature of the experiment: Evaluation of inhibition of protease activity of MALT1 (cleavage of fluorescent peptide substrate Ac-LRSR-AMC). As to conditions: substrate Ac-LRSR-AMC 20 μmol/L, 30° C. for 80 minutes. Format: biochemical. The procedure: The guanidine derivative (I) or the pharmacologically acceptable salt thereof was evaluated for its inhibition of the protease activity of MALT1 in an in vitro experimental system in accordance with the method described in the literature (Cancer Cell, 2012, Vol. 22, p. 825-837). Specifically, the evaluation was conducted by measuring the degree of reduction in fluorescence value by the compound relative to elevation in fluorescence value resulting from the cleavage of a fluorescently labeled artificial peptide substrate by recombinant MALT1.
Chain of recombinant GST fusion MALT1 (human MALT1) (Q9UDY8 whole entry, the tested form may be a part): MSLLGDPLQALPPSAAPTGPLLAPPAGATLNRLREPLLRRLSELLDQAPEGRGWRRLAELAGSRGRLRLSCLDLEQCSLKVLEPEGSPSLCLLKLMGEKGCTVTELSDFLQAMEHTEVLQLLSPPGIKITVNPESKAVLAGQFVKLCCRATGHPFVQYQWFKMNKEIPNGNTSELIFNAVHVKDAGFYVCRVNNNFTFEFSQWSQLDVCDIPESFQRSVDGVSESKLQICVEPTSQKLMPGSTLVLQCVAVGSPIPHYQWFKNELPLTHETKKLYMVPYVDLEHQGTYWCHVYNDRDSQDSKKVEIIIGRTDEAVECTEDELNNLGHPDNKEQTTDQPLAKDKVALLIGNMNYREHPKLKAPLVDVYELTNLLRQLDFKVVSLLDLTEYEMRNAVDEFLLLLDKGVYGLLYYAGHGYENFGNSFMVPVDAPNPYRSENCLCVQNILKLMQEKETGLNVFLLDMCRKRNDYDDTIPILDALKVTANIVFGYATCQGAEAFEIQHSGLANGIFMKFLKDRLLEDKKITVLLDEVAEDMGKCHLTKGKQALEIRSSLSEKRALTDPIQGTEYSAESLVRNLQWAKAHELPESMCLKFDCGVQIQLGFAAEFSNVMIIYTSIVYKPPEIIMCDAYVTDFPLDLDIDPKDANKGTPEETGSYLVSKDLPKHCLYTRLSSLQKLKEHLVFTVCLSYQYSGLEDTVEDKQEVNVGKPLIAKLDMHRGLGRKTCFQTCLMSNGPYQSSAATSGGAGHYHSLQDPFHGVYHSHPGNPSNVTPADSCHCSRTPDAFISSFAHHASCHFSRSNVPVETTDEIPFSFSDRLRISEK
A) Preparation of Recombinant GST Fusion MALT1:
Full-length cDNA of human MALT1 gene (GenBank accession No: AB026118.1) amplified by PCR was inserted in flame to a SalI site located downstream of GST gene in a pGEX6P3 vector (GE Healthcare Japan Corp.) to prepare a vector (hereinafter, referred to as a pGEX6P3-MALT1 vector). Subsequently, E. coli for protein expression (BL21-RIL-codon plus-DE3, Agilent Technologies, Inc.) was transformed with the pGEX6P3-MALT1 vector and then analyzed by ampicillin resistance screening and colony PCR to obtain an E. coli strain expressing recombinant GST fusion MALT1. Protein expression was induced with isopropyl-(3-thiogalactopyranoside. After the expression induction, E. coli precipitates were recovered by centrifugation from the E. coli culture solution, and the E. coli precipitates were homogenized and then centrifuged to obtain a supernatant. The supernatant was purified using GSTrap FF column (GE Healthcare Japan Corp.) to obtain recombinant GST fusion MALT1.
B) Evaluation of Inhibition of Protease Activity of MALT1:
To 89 μL of an enzyme solution ([…] GST fusion MALT1, 50 mmol/L MES, 150 mmol/L NaCl, 10% sucrose, 0.1% CHAPS, 10 mmol/L dithiothreitol, and 1 mol/L tri-ammonium citrate) per specimen, 1 μL of a test compound (DMSO-diluted solution) of each concentration was added to prepare a mixed solution. The mixed solution was incubated at room temperature for 30 minutes, followed by the measurement of the fluorescence value of the mixed solution (fluorescence value of the first measurement) (Ex: 380 nm, Em: 460 nm; Envision (Perkin Elmer Inc.)). Next, 10 μL of 200 μmol/L substrate (Ac-LRSR-AMC, SM Biochemicals LLC) was added (final concentration: 20 μmol/L) to the mixed solution, and the mixture was reacted by incubation at 30° C. for 80 minutes, followed by the measurement of the fluorescence value of the reaction solution (fluorescence value of the second measurement) (Ex: 380 nm, Em: 460 nm; Envision (Perkin Elmer Inc.)). A “well nonsupplemented with the test compound (only DMSO was added), nonsupplemented with the enzyme and supplemented with the substrate”, and a “well nonsupplemented with the test compound (only DMSO was added), supplemented with the enzyme and supplemented with the substrate” were established.
The fluorescence value of the first measurement was defined as “F1”, and the fluorescence value of the second measurement was defined as “F2”. F2−F1 of the “well nonsupplemented with the test compound (only DMSO was added), nonsupplemented with the enzyme and supplemented with the substrate” was defined as “Fback”, F2−F1 of the “well nonsupplemented with the test compound (only DMSO was added), supplemented with the enzyme and supplemented with the substrate” was defined as “Fpositive”, and F2−F1 of the “well supplemented with the test compound, supplemented with the enzyme and supplemented with the substrate” was defined as “Fsample”. The rate of inhibition (%) of the protease activity of MALT1 by the test compound was calculated according to the following expression. Rate of inhibition (%)=100×(1−(Fsample−Fback)/(Fpositive−Fback))
On to `COc1ccc(-c2cc(CN/C(N)=N/S(=O)(=O)c3ccccc3)cnc2-c2ccc(Cl)cc2)cc1F` [Compound of Example 37, N-(amino(((6-(4-chlorophenyl)-5-(3-fluoro-4-methoxyphenyl)pyridin-3-yl)methyl)amino)methylene)benzenesulfonamide], for which the negative logarithm of the IC50 (pIC50) – broadly, the negative decadic logarithm of the IC50, by convention in mol/L – is 5.89.

In the case of `N/C(=N\S(=O)(=O)c1cccc(F)c1)NCc1cnc(-c2ccc(Cl)cc2)c(-c2ccc(Cl)cc2)c1` [Compound of Example 27, N-(amino(((5,6-bis(4-chlorophenyl)pyridin-3-yl)methyl)amino)methylene)-3-fluorobenzenesulfonamide], the pIC50 is 6.27.

As for `N/C(=N\C(=O)c1nccs1)NCc1cnc(-c2ccc(Cl)cc2)c(-c2ccc(Cl)cc2)c1` [Compound of Example 61, N-(amino(((5,6-bis(4-chlorophenyl)pyridin-3-yl)methyl)amino)methylene)thiazole-2-carboxamide], the pIC50 was 6.39.

With `N/C(=N\C(=O)CCc1ccccc1)NCc1cnc(-c2ccc(Cl)cc2)c(-c2ccc(Cl)cc2)c1` [Compound of Example 74, N-(amino(((5,6-bis(4-chlorophenyl)pyridin-3-yl)methyl)amino)methylene)-3-phenylpropanamide], the pIC50 is 6.53.

With `N/C(=N\S(=O)(=O)c1ccco1)NCc1cnc(-c2ccc(Cl)cc2)c(-c2ccc(Cl)cc2)c1` [Compound of Example 31, N-(amino(((5,6-bis(4-chlorophenyl)pyridin-3-yl)methyl)amino)methylene)furan-2-sulfonamide], the pIC50 was 6.99.

For `N/C(=N\S(=O)(=O)c1ccccc1)NCc1cnc(-c2ccccc2)c(-c2ccc(Cl)cc2)c1` [Compound of Example 3, N-(amino(((5-(4-chlorophenyl)-6-phenylpyridin-3-yl)methyl)amino)methylene)benzenesulfonamide], the pIC50 was 6.15.

For the compound `N/C(=N\S(=O)(=O)c1ccc(Cl)s1)NCc1cnc(-c2ccc(Cl)cc2)c(-c2ccc(Cl)cc2)c1` [Compound of Example 54, N-(amino(((5,6-bis(4-chlorophenyl)pyridin-3-yl)methyl)amino)methylene)-5-chlorothiophene-2-sulfonamide], the pIC50 was 6.77.

For the compound `Cc1ccc(-c2ncc(CN/C(N)=N/S(=O)(=O)c3cccs3)cc2-c2ccc(C(F)(F)F)cc2)cc1` [Compound of Example 33, N-(amino(((6-(4-methylphenyl)-5-(4-(trifluoromethyl)phenyl)pyridin-3-yl)methyl)amino)methylene)thiophene-2-sulfonamide Hydrochloride], the negative-log IC50 (pIC50) is 5.68.

`Cc1ccc(-c2cc(CN/C(N)=N/S(=O)(=O)c3ccccc3)cnc2-c2ccc(Cl)cc2)cc1` [Compound of Example 17, N-(amino(((6-(4-chlorophenyl)-5-(4-methylphenyl)pyridin-3-yl)methyl)amino)methylene)benzenesulfonamide]: the pIC50 was 6.22.

As to `COc1ccc(-c2ncc(CN/C(N)=N/S(=O)(=O)c3ccccc3)cc2-c2ccc(Cl)cc2)cc1` [Compound of Example 6, N-(amino(((5-(4-chlorophenyl)-6-(4-methoxyphenyl)pyridin-3-yl)methyl)amino)methylene)benzenesulfonamide], the pIC50 was 6.30.

Consider `CCOc1cccc(S(=O)(=O)/N=C(\N)NCc2cnc(-c3ccc(Cl)cc3)c(-c3ccc(Cl)cc3)c2)c1` [Compound of Example 51, N-(amino(((5,6-bis(4-chlorophenyl)pyridin-3-yl)methyl)amino)methylene)-3-ethoxybenzenesulfonamide], for which the pIC50 is 6.73.

In the case of `N/C(=N\C(=O)c1ccco1)NCc1cnc(-c2ccc(Cl)cc2)c(-c2ccc(Cl)cc2)c1` [Compound of Example 78, N-(amino(((5,6-bis(4-chlorophenyl)pyridin-3-yl)methyl)amino)methylene)furan-2-carboxamide], the pIC50 is 6.12.

`N/C(=N\S(=O)(=O)c1ccccc1)NCc1cnc(-c2ccc(O)cc2)c(-c2ccc(Cl)cc2)c1` [Compound of Example 95, N-(amino(((5-(4-chlorophenyl)-6-(4-hydroxyphenyl)pyridin-3-yl)methyl)amino)methylene)benzenesulfonamide Hydrochloride]: the negative logarithm of the IC50 (pIC50) was 5.99.

As for `N/C(=N\S(=O)(=O)c1ccccc1)NCc1cnc(-c2ccc(Cl)cc2O)c(-c2ccc(Cl)cc2)c1` [Compound of Example 97, N-(amino(((6-(4-chloro-2-hydroxyphenyl)-5-(4-chlorophenyl)pyridin-3-yl)methyl)amino)methylene)benzenesulfonamide], the pIC50 is 6.04.

`Cc1ccc(-c2ncc(CN/C(N)=N/S(=O)(=O)c3ccccc3)cc2-c2ccc(Cl)cc2)cc1` [Compound of Example 5, N-(amino(((5-(4-chlorophenyl)-6-(4-methylphenyl)pyridin-3-yl)methyl)amino)methylene)benzenesulfonamide]: the pIC50 is 7.18.

Turning to `Cc1nc(-c2ccc(Cl)cc2)c(-c2ccc(Cl)cc2)cc1CN/C(N)=N/S(=O)(=O)c1ccccc1` [Compound of Example 90, N-(amino(((5,6-bis(4-chlorophenyl)-2-methylpyridin-3-yl)methyl)amino)methylene)benzenesulfonamide], the pIC50 is 6.63.

Turning to `N/C(=N\S(=O)(=O)c1ccccc1)NCc1cnc(-c2ccc(Cl)cc2)c(-c2ccc(O)cc2)c1` [Compound of Example 94, N-(amino(((6-(4-chlorophenyl)-5-(4-hydroxyphenyl)pyridin-3-yl)methyl)amino)methylene)benzenesulfonamide Hydrochloride], the negative logarithm of the IC50 (pIC50) was 5.79.

Consider `CN(C)S(=O)(=O)/N=C(\N)NCc1cnc(-c2ccc(Cl)cc2)c(-c2ccc(Cl)cc2)c1` [Compound of Example 60, ((2-amino-2-(((5,6-bis(4-chlorophenyl)pyridin-3-yl)methyl)amino)-1-azavinyl)sulfonyl)dimethylamine], for which the pIC50 is 5.88.

For the compound `NC(=NS(=O)(=O)c1cccs1)NCc1cc(-c2ccc(Cl)cc2)c(-c2ccc(Cl)cc2)cn1` [Compound of Example 43, N-(amino(((4,5-bis(4-chlorophenyl)pyridin-2-yl)methyl)amino)methylene)thiophene-2-sulfonamide], the pIC50 was 7.64.

For the compound `N/C(=N\C(=O)c1ccccc1F)NCc1cnc(-c2ccc(Cl)cc2)c(-c2ccc(Cl)cc2)c1` [Compound of Example 67, N-(amino(((5,6-bis(4-chlorophenyl)pyridin-3-yl)methyl)amino)methylene)-2-fluorobenzamide], the pIC50 was 6.19.

As for `COc1ccc(C(=O)/N=C(\N)NCc2cnc(-c3ccc(Cl)cc3)c(-c3ccc(Cl)cc3)c2)cc1` [Compound of Example 69, N-(amino(((5,6-bis(4-chlorophenyl)pyridin-3-yl)methyl)amino)methylene)-4-methoxybenzamide], the negative-log IC50 (pIC50) was 6.11.

As to `N/C(=N\S(=O)(=O)c1ccccc1)NCc1cnc(-c2ccc(Cl)cc2F)c(-c2ccc(Cl)cc2)c1` [Compound of Example 36, N-(amino(((6-(4-chloro-2-fluorophenyl)-5-(4-chlorophenyl)pyridin-3-yl)methyl)amino)methylene)benzenesulfonamide], the pIC50 is 6.63.

With `NN/C(=N\S(=O)(=O)c1ccccc1)NCc1cnc(-c2ccc(Cl)cc2)c(-c2ccc(Cl)cc2)c1` [Compound of Example 38, N-((5,6-bis(4-chlorophenyl)pyridin-3-yl)methyl)-N′-(phenylsulfonyl)hydrazinecarboximidate], the pIC50 was 7.05.

As to `CC(C)Oc1ccc(-c2cc(CN/C(N)=N/S(=O)(=O)c3ccccc3)cnc2-c2ccc(Cl)cc2)cc1` [Compound of Example 23, N-(amino(((6-(4-chlorophenyl)-5-(4-isopropoxyphenyl)pyridin-3-yl)methyl)amino)methylene)benzenesulfonamide], the pIC50 was 5.76.
